Experimental data: patent publication US20100261246A1, “METHOD FOR INHIBITING TELOMERASE REACTION” (PANASONIC CORPORATION, priority 2009, published 2010)

What was measured:
telomerase [1] = assay: Telomerase activity measurement with S7700 kit, telomerase reaction and PCR carried out sequentially in one mix, ladder peaks by Bioanalyzer 2100; format: biochemical; conditions: 1.1 μM of TMPyP added
Experimental: In this experiment, comparative studies of effects of inhibiting telomerase by an anionic phthalocyanine and cationic porphyrin (TMPyP) that is a conventionally known typical material having an effect of inhibiting telomerase were carried out using a kit for telomerase activity measurement manufactured by Millipore Corporation (TRAPEZE Telomeraze Detection Kit S7700).
TRAPEZE Telomeraze Detection Kit S7700 (hereinafter, merely referred to as S7700 kit) is a kit that includes 10× TRAP Reaction buffer, 50× dNTPs Mix, TS primer, Primer Mix, and a control cell pellet.
The TS primer is an oligo DNA consisting of 5′-[sequence]-3′, and serves as an initiation sequence of the telomerase reaction upon binding of telomerase, similarly to a human telomeric DNA sequence.
Therefore, the Primer Mix in the S7700 kit includes RP primer. This primer is an oligo DNA having a sequence complementary to the sequence elongated by the telomerase reaction, and thus, the telomerase reaction product can be amplified to a detectable level on electrophoresis by carrying out PCR using the aforementioned TS primer and the RP primer.
As described above, the telomerase reaction and PCR are carried out sequentially in the telomerase activity measurement using the S7700 kit. […]

telomerase [2] = assay: Telomerase reaction carried out first, then PCR of the diluted reaction solution, gel electrophoresis, with or without λDNA; format: biochemical; conditions: final concentrations 0.1 to 10 μM
Experimental: (§1) Moreover, effects of inhibiting telomerase by TMPyP and anionic phthalocyanines were compared in Comparative Example 3 and Example 4 to 5 below. In these experiments, the S7700 kit was used similarly to the aforementioned Comparative Examples 1 to 2 and Examples 1 to 3. However, in Comparative Examples 1 to 2 and Examples 1 to 3 described above, the reagents required only for the telomerase reaction and PCR were all mixed first, and the telomerase reaction and PCR were carried out sequentially by regulating the reaction temperature. To the contrary, in the following Comparative Example 3 and Examples 4 to 5, only the reagents required for the telomerase reaction were first mixed to carry out a telomerase reaction, and a part of the reaction solution and the reagents required for the PCR were mixed to carry out the PCR.
In addition, in each of the following Comparative Example 3 and Examples 4 to 5, experiments were carried out with or without addition of a λDNA in the telomerase reaction. Addition of the λDNA was intended to reproduce for mimicking the conditions in which a large amount of double-stranded DNAs are present as in the case of genomic DNAs in cells, and to study the effects of inhibiting telomerase by TMPyP or anionic phthalocyanines even under conditions more approximate to those in vivo, by adding a λDNA.
Telomerase reaction solution in a total volume of 10 μL were prepared by mixing 1 μL of 10× TRAP Reaction buffer, 0.2 μL of 50× dNTP Mix, 0.2 μL of TS primer, 4 μL of the telomerase solution prepared in Comparative Example 1, 2 μL of the TMPyP aqueous solution, and 2.6 μL of milliQ water (the reaction solutions having final TMPyP concentrations of 0 M, 0.1 μM, 0.3 μM, 1 μM, 3 μM and 10 μM were prepared, respectively). Then, the reaction solutions were stood under a condition of 30° C. for 60 min to allow a telomerase reaction to be carried out.
(§2) Next, 4 μL of a solution prepared by diluting the solution after the telomerase reaction 20 times with milliQ water, 0.2 μL of 50× dNTP Mix, 0.2 μL of TS primer, 0.2 μL of Primer Mix, 0.1 μL of TaKaLa LA Taq Hot Start Version (manufactured by Takara Bio Inc.), 1 μL of 10× LA PCR buffer II (Mg^2+ plus) (buffer solution included in TaKaLa LA Taq Hot Start Version), and 4.3 μL of milliQ water were mixed to prepare a PCR solution in a total volume of 10 μL. Then, PCR was carried out by allowing this PCR solution to stand under temperature conditions in which a thermo cycle of: 30 sec at 95° C.; 30 sec at 59° C.; and 30 sec at 72° C. was repeated 30 times.
(§3) Finally, the solution after the PCR was electrophoresed on a 10% polyacrylamide gel, and stained with GelStar Nucleic Acid Stain (manufactured by Takara Bio Inc.). […] In the order from the leftmost lane, the results with final concentrations of TMPyP being 0 M, 0.1 μM, 0.3 μM, 1 μM, 3 μM and 10 μM are shown.
On the other hand, experiments in which a λDNA was added to the telomerase reaction solution were also carried out. More specifically, in preparing the telomerase reaction solution described above, 2.6 μL of a λDNA solution (manufactured by Takara Bio Inc.) was mixed in place of mixing 2.6 μL of milliQ water. Other telomerase reaction temperature/time schedule, PCR solution preparation condition, PCR temperature/time schedule, electrophoresis condition were just the same.

[3] = system: TaKaLa LA Taq Hot Start Version (polymerase reaction); assay: PCR control band in the separate telomerase reaction / PCR experiment; format: biochemical; conditions: 10 μM, no addition of λDNA
Experimental: as §1, §2, §3

TITANIUM Taq polymerase = assay: PCR control (36-bp PCR amplification product) in S7700 kit one-mix reaction, Bioanalyzer 2100; format: biochemical; conditions: TMPyP concentration not less than 3 μM
Experimental: Therefore, TITANIUM […] polymerase (manufactured by Clontech Laboratories) was used in the present studies.
For example, it is highly probable that materials which nonspecifically bind to double-stranded DNAs inhibit PCR.
The S7700 kit includes a set of a template DNA and a primer for such ascertainment in the Primer Mix, and a 36-bp PCR amplification product is obtained from the set when the PCR is carried out.
Therefore, when the effect of a material expected to inhibit the telomerase reaction is verified using the S7700 kit, it is necessary to confirm that the telomerase reaction product is not detected in final results of electrophoresis, and that the 36-bp PCR product is normally amplified.
First, in accordance with the protocol of the kit, a telomerase solution was prepared from the attached control cell pellet. Next, a reaction solution in a total volume of 20 μL was prepared by mixing 2 μL of 10× TRAP Reaction buffer, 0.4 μL of 50× dNTP Mix, 0.4 μL of TS primer, 0.4 μL of Primer Mix, 0.4 μL of TITANIUM Taq polymerase, 14.8 μL of milliQ water (purified water), and 1.6 μL of the telomerase solution prepared as described above.
Subsequently, the telomerase reaction was allowed by standing this reaction solution under a condition of 30° C. for 30 min. Thereafter, PCR was carried out by repeating 33 times a thermo cycle of: 30 sec at 94° C.; 30 sec at 59° C.; and 1 min at 72° C. […]

single-stranded DNA = assay: Absorbance 480 to 800 nm of phthalocyanine mixed with single-stranded DNA solution; format: binding; conditions: 15 μM compound solution, DNA 50 μM, pH7
Experimental: A solution of 50 mM HEPES and 100 mM NaCl, pH7 (total volume: 100 μL) containing a single-stranded DNA consisting of a sequence of 5′-[…]-3′ sequence (SEQ ID NO: 3) at a concentration of 50 μM was prepared, which was incubated at 90° C. for 5 min, and thereafter cooled to 0° C. at a rate of temperature fall of 2° C./min, followed by finally incubating at 0° C. for 2 hrs. The DNA in thus resulting solution was a single-stranded DNA even after the incubation (hereafter, the solution referred to as “single-stranded DNA solution”).
(§4) Next, the aforementioned CuPC solution and single-stranded DNA solution, and the aforementioned CuPC solution and double-stranded DNA solution were similarly mixed, respectively. And then the absorbance of these liquid mixtures was measured at 480 to 800 nm. FIG. 9(A) and FIG. 9(B) show the results of the measurement in the cases of the single-stranded DNA solution and the double-stranded DNA solution, respectively.
(§5) Next, the aforementioned NiPC solution and single-stranded DNA solution, and the aforementioned NiPC solution and double-stranded DNA solution were similarly mixed, respectively; the absorbance of these liquid mixtures was measured at 480 to 800 nm. FIG. 11(A) and FIG. 11(B) show the results of the measurement in the cases of the single-stranded DNA solution and the double-stranded DNA solution, respectively. In each drawing, the result obtained when the NC solution was used is also shown together.
(§6) Next, the aforementioned PC solution and single-stranded DNA solution, and the aforementioned PC solution and double-stranded DNA solution were similarly mixed, respectively; the absorbance of these liquid mixture was measured at 480 to 800 nm. FIG. 13(A) and FIG. 13(B) show the results of the measurement in the cases of the single-stranded DNA solution and the double-stranded DNA solution, respectively. In each drawing, the result obtained when the NC solution was used is also shown together.
(§7) Next, the aforementioned CoPC solution and single-stranded DNA solution, and the aforementioned CoPC solution and double-stranded DNA solution were similarly mixed, respectively, and then the absorbance of these liquid mixtures was measured at 480 to 800 nm. FIG. 15(A) and FIG. 15(B) show the results of the measurement in the cases of the single-stranded DNA solution and the double-stranded DNA solution, respectively. In each drawing, the result obtained when the NC solution was used is also shown together.

[4] = system: G-quadruplex structure (human telomeric oligo DNA); assay: Absorbance 480 to 800 nm of phthalocyanine mixed with G-quadruplex solutions; format: binding; conditions: for interaction with the G-quadruplex structure (absorption peak): 15 μM compound solution, 50 mM HEPES, 100 mM NaCl, pH7
Experimental: Hereinafter, the interaction between anionic phthalocyanines and various DNAs was studied in Examples 6, 7, 8 and 9. For this purpose, a solution containing a G-quadruplex structure, a solution including a single-stranded DNA, and a solution containing a double-stranded DNA were first prepared according to the following procedures.
A solution of 50 mM HEPES and 100 mM NaCl, pH7 (total volume: 100 μL) containing a single-stranded DNA consisting of a sequence of 5′-[…]-3′ (SEQ ID NO: 2; this sequence being similar to a sequence of a human telomere portion, and thus the DNA referred to as “human telomeric oligo DNA” hereafter) was incubated at 90° C. for 5 min, and thereafter cooled to 0° C. at a rate of temperature fall of 2° C./min, followed by finally incubating at 0° C. for 2 hrs.
The concentrations of the human telomeric oligo DNA contained in the solution were 0, 0.5, 2, 5, 10, 25, 50 and 100 μM.
The absolute values of the positive and negative peaks were maximized for the solution having the human telomeric oligo DNA concentration of 100 μM, and dropped in the order of 50, 25, 10, 5, 2 and 0.5 μM. […] Hereafter, G-quadruplex solutions prepared from the solutions having human telomeric oligo DNA concentrations of 100, 50, 25, 10, 5, 2 and 0.5 μM are referred to as G-quadruplex solutions A, B, C, D, E, F and G, respectively. On the other hand, the solution without the human telomeric oligo DNA contained therein is referred to as NC solution.
First, a solution of 50 mM HEPES and 100 mM NaCl, pH7 (total volume: 20 μL) containing 15 μM CuPC was prepared. Then, this CuPC solution was mixed with each of the G-quadruplex solutions C, D, E and F and the NC solution, and the absorbance of these liquid mixtures were measured at 480 to 800 nm.
First, a solution of 50 mM HEPES and 100 mM NaCl, pH7 (total volume: 20 μL) containing 15 μM NiPC was prepared. Then, this NiPC solution was mixed with each of the G-quadruplex solutions D, E, F and G, and the NC solution, and the absorbance of these liquid mixtures were measured at 480 to 800 nm.
First, a solution of 50 mM HEPES and 100 mM NaCl, pH7 (total volume: 20 μL) containing 15 μM PC was prepared. Then, this PC solution was mixed with each of the G-quadruplex solutions D, E, F and G, and the NC solution, and the absorbance of these liquid mixtures were measured at 480 to 800 nm.
First, a solution of 50 mM HEPES and 100 mM NaCl, pH7 (total volume: 20 μL) containing 15 μM CoPC was prepared. Then, this CoPC solution was mixed with each of the G-quadruplex solutions B, C, D and G, and the NC solution, and the absorbance of these liquid mixtures were measured at 480 to 800 nm.

double-stranded DNA = assay: Absorbance 480 to 800 nm of phthalocyanine mixed with double-stranded DNA solution; format: binding; conditions: 15 μM compound solution, DNA 50 μM, pH7
Experimental: A solution of 50 mM HEPES and 100 mM NaCl, pH7 (total volume: 100 μL) containing a single-stranded DNA consisting of a sequence of 5′-AGAAGAGAAAGA-3′ (SEQ ID NO: 4) and a single-stranded DNA consisting of a sequence of 5′-TCTTTCTCTTCT-3′ (SEQ ID NO: 5) at each concentration of 50 μM was prepared, which was incubated at 90° C. for 5 min, and thereafter cooled to 0° C. at a rate of temperature fall of 2° C./min, followed by finally incubating at 0° C. for 2 hrs. Since the aforementioned two kinds of DNAs are complementary to one another, both DNAs form a double-stranded DNA in the solution as a result of the incubation (hereafter, the solution referred to as “double-stranded DNA solution”).
as §4, §5, §6, §7

Compound	total DNA concentration corresponding to the ladder peaks in the reaction product (telomerase [1]) [ng/µL]	inhibition of the telomerase reaction (band of telomerase reaction product) (telomerase [2]; in the presence of λDNA)	inhibition of the telomerase reaction (band of telomerase reaction product) (telomerase [2]; no addition of λDNA)	amplification of the PCR control (band) [3]	DNA concentration corresponding to the PCR control peak (TITANIUM Taq polymerase)	interaction with the single-stranded DNA (absorption spectrum vs NC solution) (single-stranded DNA)	interaction with the G-quadruplex structure (absorption peak) [4]	elevation of the peaks in the range of 640 to 720 nm with G-quadruplex ([4]; compared with CuPC, NiPC or PC)	interaction with the double-stranded DNA (absorption spectrum vs NC solution) (double-stranded DNA)
C[n+]1ccc(-c2c3nc(c(-c4cc[n+](C)cc4)c4ccc([nH]4)c(-c4cc[n+](C)cc4)c4nc(c(-c5cc[n+](C)cc5)c5ccc2[nH]5)C=C4)C=C3)cc1 [TMPyP, reference compound]	2.7	not inhibited at all	inhibited the telomerase reaction	became weaker	not beyond the detection limit	–	–	–	–
Cobalt(II) phthalocyanine tetracarboxylic acid [CoPC]	–	–	–	–	–	an interaction did not occur	an interaction occurred	less than the resultant elevation when CuPC, NiPC or PC was used	an interaction did not occur
Phthalocyanine tetrasulfonic acid [PC]	–	–	–	–	–	an interaction did not occur	an interaction occurred	–	an interaction did not occur
Zinc(II) phthalocyanine tetrasulfonic acid [ZnPC]	–	–	–	–	–	–	specifically interacted with a G-quadruplex structure	–	–
